Patent US11903914B2, “Applications for sulindac in preparing anti-lung cancer products” (SHANGHAI JIAO TONG UNIVERSITY, priority 2015, dated 2024)

Columns and labels:
Assay type in all cases: cell-based
[1] = system: NCI-H720 lung cancer cells; test: CELLTITER-GLO luminescent cell viability assay, NCI-H720 96-well drug screening plate; conditions: 72 hours
Protocol: (§1) In example 1, CELLTITER-GLO was used to test sulindac against lung cancer
(§2) 1. Cell Plating • a) The complete medium required for each cell was prepared. • b) Before beginning the experiment, the name of the drug screened for the cells marked on the 100 mm petri dish was confirmed as well as information such as the passage time and number of passages to ensure the experiment was error-free. • c) Refer to steps d) through i) for procedures for adherent cells; refer to steps j) through l) for procedures for suspension cells. • d) When using aseptic technique, a vacuum pump was used to draw the cell culture medium. • e) 2 ml of a sterile PBS solution was used to rinse cell surfaces, and a vacuum pump was used to aspirate the PBS waste. • f) A 1 ml 0.25% (w/v) Trypsin-0.038% (w/v) EDTA solution was gently added to the petri dish for cell digestion, and after gently mixing several times, the solution covered the cell surfaces. […]

SW900 lung cancer cells = test: CELLTITER-GLO luminescent cell viability assay, SW900 96-well drug screening plate; conditions: Homo sapiens, 72 hours
Protocol: as §1, §2

[2] = system: LOVO (ATCC CCL-229) lung cancer cells; test: CELLTITER-GLO luminescent cell viability assay, LOVO cells (same method); conditions: Homo sapiens
Protocol: as §2

IC50 ([1]; CellTiter-Glo): 42.7 µM | EC50 ([1]; FIG. 2 curve fit): 38.6 µM | IC50 (SW900 lung cancer cells): 50.3 µM | IC50 [2]: 100 µM
Compound: CC1=C(CC(=O)O)c2cc(F)ccc2/C1=C\c1ccc([S+](C)[O-])cc1 (stereo not shown) [sulindac]
